# Laboratory results as given in patent publication US20090298903A1, “USE OF TETRAMIC ACID DERIVATIVES FOR INSECT CONTROL” (priority 2006, published 2009).
# Assays:
# Type in all cases: in vivo
# Ceutorhynchus napi = assay: Example 26-A: oilseed rape against Ceutorhynchus napi; conditions: 55 d after treatment, larvae, Deltamethrin (25 EC) 5, (I-4) (+ 0.2% rapeseed oil methyl ester) 72, Thiacloprid (OD 240) 72, Lambda-cyhalothrin 5 g a.s./ha
# Method: Plots approx. 25 m^2 in size which are planted with oilseed rape cv. “Artus” are treated, in four replications, against Ceutorhynchus napi. The application is carried out with a motor-operated knapsack sprayer. Here, the active substance Example (I-4), in a tank mix with 0.2% a.s. rapeseed oil methyl ester (500 EW) and the commercial standards Deltamethrin (25 EC), lambda-cyhalothrin (S100) and Thiacloprid (OD 240), is tested at the specified application rates. The water application rate is 250 l/ha.
# The test is evaluated 55 days after the treatment by scoring the destruction rate of the larvae on the plants.
# [1] = test system: Frankliniella occidentalis; assay: Example 2: bell peppers against Frankliniella occidentalis; conditions: Acrinathrin 60, (I-9) 54, (I-4) 60 g a.s./ha, (I-9)/(I-4) 240 SC + 0.1% rapeseed oil methyl ester
# Method: Plots 10 m^2 in size which are planted with bell peppers cv. “Zingaro” are treated, in three replications, against Frankliniella occidentalis. The application is effected with a knapsack sprayer which is operated with pressurized air. Here, the active substances Example (I-9) (240 SC) and Example (I-4) (240 SC), in the form of a tank mix together with 0.1% a.s. rapeseed oil methyl ester (500 EW) and the commercial standard acrinathrin (075 EW), are applied at the specified application rates. Two applications are carried out at an interval of 24 days, with a water application rate of 1000 l/ha.
# The test is evaluated 17 and 21 days after treatment 1 and 4 days after treatment 2 by scoring the destruction of the animals (nymphs) on the flowers.
# Empoasca biguttula = assay: Example 12: cotton against Empoasca biguttula
# Method: Plots 10 m^2 in size which are planted with cotton are treated, in three replications, against Empoasca biguttula. The application is carried out with a knapsack sprayer operated with pressurized air. Here, the active substance Example (I-4) (240 SC), in a tank mix with 0.2% a.s. rapeseed oil methyl ester (500 EW), is tested against the commercial standards Imidacloprid (SL 100) and Buprofezin (WP50) at the specified application rates. Two applications are carried out at an interval of 7 days. The water application rate is 750 l/ha.
# The test is evaluated 3, 7, 14 and 21 days after the second treatment by counting the live animals. Thereafter, the efficacy is calculated in percent, using the formula of Henderson and Tilton.
# Liriomyza sp. = assay: Example 18: beans against Liriomyza sp.; conditions: for Efficacy (% Abbott) 2 d: 2 d after first treatment, 10 leaves, Cyromazine (WP 75) 130, (I-4) (150 OD) 100, Abamectin (EC 018) 14.4 g a.s./ha, three applications, 7-day intervals; for Efficacy (% Abbott) 7 d: 7 d after first treatment; for Efficacy (% Abbott) 7 d / Efficacy (% Abbott) 12 d / Efficacy (% Abbott) 18 d / Efficacy (% Abbott) 20 d / Efficacy (% Abbott) 25 d: Cyromazine 130, (I-4) 100, Abamectin 14.4 g a.s./ha; for Efficacy (% Abbott) 12 d: 12 d after first treatment; for Efficacy (% Abbott) 18 d: 18 d after first treatment; for Efficacy (% Abbott) 20 d: 20 d after first treatment; for Efficacy (% Abbott) 25 d: 25 d after first treatment
# Method: Plots approx. 10 m^2 in size which are planted with beans cv. “Lago Azul” are treated, in three replications, against Liriomyza sp. Here, the active substance Example (I-4) (150 OD) and the commercial standards Cyromazine (WP 75) and Abamectin (EC 018) are applied at the specified application rates, using a knapsack sprayer which is operated with pressurized gas. The water application rate is 400 and 500 l/ha., respectively. Three applications are carried out at intervals of in each case 7 days.
# The destruction rate in percent is determined on in each case 10 leaves. 2, 7, 12, 18, 20 and 25 days after the first treatment, the following results are obtained: […]
# Scirtothrips dorsalis = assay: Example 10: tea plants against Scirtothrips dorsalis; conditions: 7 d after treatment, nymphs, Ethiprole (SC10) 0.005, (I-4) (100 OD) 0.01, Imidacloprid (50 WG) 0.005 % a.s.
# Method: Plots approx. 5 m^2 in size which are planted with tea plants cv. “Yabukita” which are approximately 18 years old are treated, in three replications, against Scirtothrips dorsalis. Here, the active substance Example (I-4) (100 OD) is tested, at the specified application rates, against the commercial standards Ethiprole (SC10 flowable) and Imidacloprid (50 WG). The application is carried out with a sprayer which is operated with pressurized air. The water application rate is 4500 l/ha. The test is evaluated 7 days after the treatment by scoring the destruction rate of the nymphs and the plants.
# Ceratitis capitata = assay: Example 20: peach trees against Ceratitis capitata; conditions: animals on fruits
# Method: Peach trees cv. “Oom Sarel” which are approximately 10 years old are treated, in three replications, against Ceratitis capitata. The application is carried out with a high-pressure sprayer or a knapsack sprayer which is operated with pressurized air. Here, the active substance Example (I-4) (150 OD) and the commercial standard Fenthion (500 EC) are tested at the specified application rates. The water application rate is 2500 l/ha. Three applications are carried out at an interval of 7 and 19 days, respectively.
# The test is evaluated 9 and 16 days after treatment 3 by scoring the destruction rate of the animals on the fruits with the aid of the Abbott formula.
# Dacus ciliatus = assay: Example 22A: bottle gourds against Dacus ciliatus
# Method: Plots approx. 10 m^2 in size which are planted with bottle gourds cv. “Waltham” are treated, in three replications, against Dacus ciliatus. The application is carried out with a motor-operated knapsack sprayer. Here, the active substance Example (I-4) (150 OD) and the commercial standard Fenthion (500 EC) are tested at the specified application rates. Three applications are carried out at in each case an interval of 7 days. The water application rate is approx. 500 l/ha.
# The test is evaluated 8, 14 and 21 days after treatment 1 by scoring the infestation of the fruits.
# [2] = test system: olive fruit fly (Dacus oleae); assay: Example 22B: laboratory experiment, olives against olive fruit fly; conditions: olives treated three days after oviposition; Imidacloprid (200 SL) 0.01 %, (I-4) (100 OD) 0.02 %, Fenthion (500 EC) 0.05 %; untreated 84.4
# Method: In a laboratory experiment, 40 olives are treated, in four replications, against the olive fruit fly (Dacus oleae) three days after oviposition. Here, the active substance (I-4) (100 OD) and the commercial standards Fenthion (500 EC) and Imidacloprid (200 SL) are tested at the specified application rates.
# The test is evaluated 14 days after oviposition by counting the number of feeding tunnels (larval development completed), while the absence of such feeding tunnels indicates the efficacy against the larvae.
# Idioscopus clypealis = assay: Example 14: mango tree against Idioscopus clypealis; conditions: nymphs on infructescences
# Method: A mango tree which is approximately 14 years old is treated, in three replications, against Idioscopus clypealis. The application is carried out with a high-pressure sprayer. Here, the active substance Example (I-4) (240 SC), in a tank mix with 0.2% a.s. rapeseed oil methyl ester (500 EW) and the commercial standards Imidacloprid (100 SL) and Pymetrozine (WP 25), is tested at the specified application rates. The amount of spray mixture is 10 l/tree. Five treatments are carried out at intervals of 7, 14, 21 and 28 days.
# The test is evaluated in each case 7 days after treatments 3 to 5 by scoring the destruction rate of the nymphs on the infructescences.
# [3] = test system: Frankliniella occidentalis; assay: Example 5: aubergines against Frankliniella occidentalis; conditions: mixed populations on leaves
# Method: Plots 6 m^2 in size which are planted with aubergines cv. “Soraya” are treated, in three replications, against Frankliniella occidentalis. The application is effected with a motor-operated knapsack sprayer. Here, the active substances Example (I-4) (240 SC) and Example (I-9) (240 SC), in a tank mix together with 0.1% a.s. rapeseed oil methyl ester (500 EW) and the commercial standard Spinosad (480 SC), are tested at the specified application rates. The water application rate is 1500 l/ha.
# The test is evaluated 25, 32 and 39 days after the treatment by scoring the destruction rate of the mixed populations on the leaves.
# [4] = Imidacloprid 0.00025 %, (I-4) 0.0016 %, Pymetrozine 0.002 %
compound,measurement,setting,value
"CC1(C)[C@H](C(=O)O[C@H](C#N)c2cccc(Oc3ccccc3)c2)[C@@H]1/C=C(\Cl)C(F)(F)F (racemic) [Lambda-cyhalothrin, lambda-cyhalothrin]",Efficacy (% Abbott) 55 d,Ceutorhynchus napi,89.5 % Abbott
"CC1(C)[C@H](C(=O)O[C@H](C#N)c2cccc(Oc3ccccc3)c2)[C@@H]1/C=C\C(=O)OC(C(F)(F)F)C(F)(F)F [Acrinathrin, acrinathrin]",Efficacy (% Abbott) 4 d (2),"[1]; 4 d after treatment 2, nymphs on flowers",87 % Abbott
same,Efficacy (% Abbott) 17 d (1),"[1]; 17 d after treatment 1, nymphs on flowers",98 % Abbott
same,Efficacy (% Abbott) 21 d (1),"[1]; 21 d after treatment 1, nymphs on flowers",91 % Abbott
CC(C)N1C(=O)N(c2ccccc2)CS/C1=N\C(C)(C)C [Buprofezin],Efficacy (% H + T) 3 d,"Empoasca biguttula; 3 d after second treatment, Henderson and Tilton, Imidacloprid (SL 100) 30, (I-4) (240 SC + 0.2% rapeseed oil methyl ester) 24, Buprofezin (WP50) 50 g a.s./ha",96.5 % H + T
same,Efficacy (% H + T) 7 d,"Empoasca biguttula; 7 d after second treatment, Imidacloprid 30, (I-4) 24, Buprofezin 50 g a.s./ha",94.7 % H + T
same,Efficacy (% H + T) 14 d,"Empoasca biguttula; 14 d after second treatment, Imidacloprid 30, (I-4) 24, Buprofezin 50 g a.s./ha",90.1 % H + T
same,Efficacy (% H + T) 21 d,"Empoasca biguttula; 21 d after second treatment, Imidacloprid 30, (I-4) 24, Buprofezin 50 g a.s./ha",67.1 % H + T
Nc1nc(N)nc(NC2CC2)n1 [Cyromazine],Efficacy (% Abbott) 2 d,Liriomyza sp.,44 % Abbott
same,Efficacy (% Abbott) 7 d,Liriomyza sp.,61 % Abbott
same,Efficacy (% Abbott) 12 d,Liriomyza sp.,42 % Abbott
same,Efficacy (% Abbott) 18 d,Liriomyza sp.,54 % Abbott
same,Efficacy (% Abbott) 20 d,Liriomyza sp.,32 % Abbott
same,Efficacy (% Abbott) 25 d,Liriomyza sp.,0 % Abbott
CC[S+]([O-])c1c(C#N)nn(-c2c(Cl)cc(C(F)(F)F)cc2Cl)c1N (stereo not drawn) [Ethiprole],Efficacy (% Abbott) 7 d,Scirtothrips dorsalis,100 % Abbott
COP(=S)(OC)Oc1ccc(SC)c(C)c1 [Fenthion],Efficacy (% Abbott) 16 d after treatment 3,"Ceratitis capitata; Fenthion 1700, (I-4) 100 g a.s./ha",88.9 % Abbott
same,Efficacy (% Abbott) 9 d after treatment 3,"Ceratitis capitata; Fenthion (500 EC) 1700, (I-4) (150 OD) 100 g a.s./ha",86.7 % Abbott
same,Efficacy (% Abbott) 8 d,"Dacus ciliatus; 8 d after treatment 1, infestation of fruits, Fenthion (500 EC) 300, (I-4) (150 OD) 200 g a.s./ha, three applications, 7-day intervals",59.6 % Abbott
same,Efficacy (% Abbott) 14 d,"Dacus ciliatus; 14 d after treatment 1, Fenthion 300, (I-4) 200 g a.s./ha",48.9 % Abbott
same,Efficacy (% Abbott) 21 d,"Dacus ciliatus; 21 d after treatment 1, Fenthion 300, (I-4) 200 g a.s./ha",60.3 % Abbott
same,Number of feeding tunnels (%) 14 days after oviposition,[2],1.9%
CC1=NNC(=O)N(/N=C/c2cccnc2)C1 [Pymetrozine],Efficacy (% Abbott) 7 days after treatment 4,Idioscopus clypealis; [4],98.6 % Abbott
same,Efficacy (% Abbott) 7 days after treatment 5,Idioscopus clypealis; [4],94.8 % Abbott
same,Efficacy (% Abbott) 7 days after treatment 3,"Idioscopus clypealis; Imidacloprid (100 SL) 0.00025 %, (I-4) (240 SC + 0.2% rapeseed oil methyl ester) 0.0016 %, Pymetrozine (WP 25) 0.002 %",70.9 % Abbott
Abamectin,Efficacy (% Abbott) 2 d,Liriomyza sp.,36 % Abbott
same,Efficacy (% Abbott) 7 d,Liriomyza sp.,80 % Abbott
same,Efficacy (% Abbott) 12 d,Liriomyza sp.,52 % Abbott
same,Efficacy (% Abbott) 18 d,Liriomyza sp.,70 % Abbott
same,Efficacy (% Abbott) 20 d,Liriomyza sp.,43 % Abbott
same,Efficacy (% Abbott) 25 d,Liriomyza sp.,60 % Abbott
Spinosad,Efficacy (% Abbott) 25 d,"[3]; 25 d after treatment, Spinosad (480 SC) 0.012, (I-9) 0.0054, (I-4) 0.012 % a.s., 240 SC + 0.1% rapeseed oil methyl ester",94.7 % Abbott
same,Efficacy (% Abbott) 32 d,"[3]; 32 d after treatment, Spinosad 0.012, (I-9) 0.0054, (I-4) 0.012 % a.s.",89.3 % Abbott
same,Efficacy (% Abbott) 39 d,"[3]; 39 d after treatment, Spinosad 0.012, (I-9) 0.0054, (I-4) 0.012 % a.s.",95.3 % Abbott
